Results taken from patent US11229623B2 (GlaxoSmithKline Intellectual Property (No.2) Limited, priority 2016, dated 2022).
Structures can show the parent of a compound that is named as a salt.

Molecular target: T1, human TRPV4 (Homo sapiens, UniProt Q9HBA0)
T1 construct: expressed in transfected cells; host or cells: BHK/AC9 cells transduced with BacMam virus
Assay: FLIPR assay for hTRPV4 expressed in BHK cells: inhibition of Agonist Compound-induced calcium signal
Type: cell-based
Conditions: not given
How it was run: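 Calcium influx through TRPV4 tracked by Fluo-4 fluorescence on FLIPR. Cells: BHK/AC9 transduced with BacMam-hTRPV4 at MOI 78, 24 h culture post-plating (15,000 cells/well). Dye loading: 2 μM Fluo-4 AM with 500 μM Brilliant Black quencher, 1-1.5 h, room temperature, dark.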

T1 sequence (Q9HBA0 whole entry): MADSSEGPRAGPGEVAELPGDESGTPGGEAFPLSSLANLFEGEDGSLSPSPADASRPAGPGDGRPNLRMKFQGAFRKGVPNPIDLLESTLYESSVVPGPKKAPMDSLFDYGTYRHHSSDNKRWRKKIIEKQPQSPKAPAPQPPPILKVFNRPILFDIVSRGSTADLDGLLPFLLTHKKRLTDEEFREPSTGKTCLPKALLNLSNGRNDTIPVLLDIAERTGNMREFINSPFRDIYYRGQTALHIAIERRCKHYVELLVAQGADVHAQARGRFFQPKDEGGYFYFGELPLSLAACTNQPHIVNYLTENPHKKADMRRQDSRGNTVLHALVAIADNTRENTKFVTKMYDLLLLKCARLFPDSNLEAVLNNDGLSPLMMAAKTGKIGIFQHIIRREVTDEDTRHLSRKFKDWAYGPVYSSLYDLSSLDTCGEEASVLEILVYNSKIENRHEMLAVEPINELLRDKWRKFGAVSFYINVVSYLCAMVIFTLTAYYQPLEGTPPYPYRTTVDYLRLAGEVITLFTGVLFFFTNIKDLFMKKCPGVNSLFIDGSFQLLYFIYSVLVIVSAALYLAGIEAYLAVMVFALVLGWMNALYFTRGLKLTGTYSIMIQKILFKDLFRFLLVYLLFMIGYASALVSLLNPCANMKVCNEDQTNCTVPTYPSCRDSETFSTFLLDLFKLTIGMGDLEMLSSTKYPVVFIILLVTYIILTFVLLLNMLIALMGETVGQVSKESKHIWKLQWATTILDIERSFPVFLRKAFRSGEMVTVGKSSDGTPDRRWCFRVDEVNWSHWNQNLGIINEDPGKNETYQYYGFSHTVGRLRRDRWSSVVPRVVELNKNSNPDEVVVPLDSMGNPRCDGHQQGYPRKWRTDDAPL

`C[C@@H](O)[C@]1(O)CN(S(=O)(=O)c2ccc(Cl)cn2)C[C@@H]1Oc1ccc(C#N)c(F)c1` [Example 195] was tested, and the IC50 was 0.1 to 10 nM.

Same assay, conditions: IC50, hTRPV4 in BHK/AC9 cells, FLIPR calcium signal, agonist at EC80; reported as range class

`C[Si](C)(C)C#Cc1ccc(S(=O)(=O)N2C[C@H](Oc3ccc(C#N)c(F)c3)[C@](O)(CO)C2)c(C#N)c1` [Example 221, 4-(((3S,4R)-1-((2-cyano-4-((trimethylsilyl)ethynyl)phenyl)sulfonyl)-4-hydroxy-4-(hydroxymethyl)pyrrolidin-3-yl)oxy)-2-fluorobenzonitrile] gave an IC50 of 0.1 to 10 nM.

Same assay, conditions: hTRPV4 in BHK/AC9 cells, FLIPR calcium signal, agonist at EC80; reported as range class; read-out: IC50

`N#Cc1cc(OCC(F)(F)F)c(O[C@H]2CN(S(=O)(=O)c3ccc(Cl)cc3Cl)C[C@@]2(O)CO)cc1F` [Example 177, 4-(((3S,4R)-1-((2,4-dichlorophenyl)sulfonyl)-4-hydroxy-4-(hydroxymethyl)pyrrolidin-3-yl)oxy)-2-fluoro-5-(2,2,2-trifluoroethoxy) benzonitrile] and `N#Cc1cc(OCC(F)(F)F)c(O[C@H]2CN(S(=O)(=O)c3ccc(C(F)(F)F)cc3C#N)C[C@@]2(O)CO)cc1F` [Example 157, 4-(((3S,4R)-1-((2-cyano-4-(trifluoromethyl)phenyl)sulfonyl)-4-hydroxy-4-(hydroxymethyl)pyrrolidin-3-yl)oxy)-2-fluoro-5-(2,2,2-trifluoroethoxy)benzonitrile] fall in the same range of IC50: 0.1 to 10 nM for the first, 0.1 to 10 nM for the second.

Compared with `N#Cc1ccc(O[C@H]2CN(S(=O)(=O)c3ccc(Cl)cn3)C[C@]2(O)CN)cc1F` [Example 234, 4-(((3S,4R)-4-(aminomethyl)-1-((5-chloropyridin-2-yl)sulfonyl)-4-hydroxypyrrolidin-3-yl)oxy)-2-fluorobenzonitrile, Hydrochloride], `N#Cc1ccc(O[C@H]2CN(S(=O)(=O)c3ccc(I)cn3)C[C@@]2(O)CN)cc1F` [Example 250, 4-(((3S,4S)-4-(aminomethyl)-4-hydroxy-1-((5-iodopyridin-2-yl)sulfonyl)pyrrolidin-3-yl)oxy)-2-fluorobenzonitrile, 2,2,2-trifluoroacetate] is lower in IC50: 10 to 100 nM for the first, 0.1 to 10 nM for the second.

First: N#Cc1ccc(O[C@H]2CN(S(=O)(=O)c3ccc(C#CC4CC4)nc3)C[C@@]2(O)CO)cc1F [Example 226, 4-(((3S,4R)-1-((6-(cyclopropylethynyl)pyridin-3-yl)sulfonyl)-4-hydroxy-4-(hydroxymethyl)pyrrolidin-3-yl)oxy)-2-fluorobenzonitrile]
Second: N#Cc1ccc(O[C@H]2CN(S(=O)(=O)c3ccc(C(F)(F)F)nc3)C[C@@]2(O)CO)cc1F [Example 5, 2-fluoro-4-(((3S,4R)-4-hydroxy-4-(hydroxymethyl)-1-((6-(trifluoromethyl)pyridin-3-yl)sulfonyl)pyrrolidin-3-yl)oxy)benzonitrile]
The IC50 of the first is lower: 10 to 100 nM for the first, 100 to 1000 nM for the second.

`N#Cc1cc(F)ccc1S(=O)(=O)N1C[C@H](Oc2ccc(Cl)cc2)[C@](O)(CO)C1` [Example 155, 2-(((3R,4S)-4-(4-chlorophenoxy)-3-hydroxy-3-(hydroxymethyl)pyrrolidin-1-yl)sulfonyl)-5-fluorobenzonitrile] and `N#Cc1ccc(S(=O)(=O)N2C[C@H](Oc3ccc(Cl)cc3)[C@](O)(CO)C2)c(Cl)c1` [Example 106, 3-chloro-4-(((3R,4S)-4-(4-chlorophenoxy)-3-hydroxy-3-(hydroxymethyl)pyrrolidin-1-yl)sulfonyl)benzonitrile] fall in the same range of IC50: 0.1 to 10 nM for the first, 0.1 to 10 nM for the second.

First: N#Cc1ccc(O[C@H]2CN(S(=O)(=O)c3c(Cl)cc(Cl)cc3Cl)C[C@@]2(O)CO)cc1F [Example 77, 2-fluoro-4-(((3S,4R)-4-hydroxy-4-(hydroxymethyl)-1-((2,4,6-trichlorophenyl)sulfonyl)pyrrolidin-3-yl)oxy)benzonitrile]
Second: Cc1ccc(S(=O)(=O)N2C[C@H](Oc3ccc(C#N)c(F)c3)[C@](O)(CO)C2)c(Cl)c1 [Example 78, 4-(((3S,4R)-1-((2-chloro-4-methylphenyl)sulfonyl)-4-hydroxy-4-(hydroxymethyl)pyrrolidin-3-yl)oxy)-2-fluorobenzonitrile]
The IC50 of the first is higher: 10 to 100 nM for the first, 0.1 to 10 nM for the second. The second is the more potent here.

`C[C@@H](O)[C@]1(O)CN(S(=O)(=O)c2ccc(C(F)F)nc2)C[C@@H]1Oc1ccc(C#N)c(F)c1` [Example 212, 4-(((3S,4R)-1-((6-(difluoromethyl)pyridin-3-yl)sulfonyl)-4-hydroxy-4-((R)-1-hydroxyethyl)pyrrolidin-3-yl)oxy)-2-fluorobenzonitrile] and `COc1ccc(S(=O)(=O)N2C[C@H](Oc3ccc(C#N)c(F)c3)[C@](O)([C@H](C)O)C2)c(C#N)c1` [Example 199, 4-(((3S,4R)-1-((2-cyano-4-methoxyphenyl)sulfonyl)-4-hydroxy-4-((S)-1-hydroxyethyl)pyrrolidin-3-yl)oxy)-2-fluorobenzonitrile] fall in the same range of IC50: 10 to 100 nM for the first, 10 to 100 nM for the second.

`CCc1ccc(S(=O)(=O)N2C[C@H](Oc3ccc(C#N)c(F)c3)[C@](O)(CO)C2)c(C#N)c1` [Example 217, 4-(((3S,4R)-1-((2-cyano-4-ethylphenyl)sulfonyl)-4-hydroxy-4-(hydroxymethyl)pyrrolidin-3-yl)oxy)-2-fluorobenzonitrile] and `Cc1ccc(S(=O)(=O)N2C[C@H](Oc3ccc(C#N)c(F)c3)[C@](O)(CO)C2)c(C#N)c1` [Example 216, 4-(((3S,4R)-1-((2-cyano-4-methylphenyl)sulfonyl)-4-hydroxy-4-(hydroxymethyl)pyrrolidin-3-yl)oxy)-2-fluorobenzonitrile] fall in the same range of IC50: 0.1 to 10 nM for the first, 0.1 to 10 nM for the second.

First: CC(C)(O)[C@]1(O)CN(S(=O)(=O)c2ccc(Cl)cn2)C[C@@H]1Oc1ccc(C#N)c(F)c1 [Example 214, 4-(((3S,4S)-1-((5-chloropyridin-2-yl)sulfonyl)-4-hydroxy-4-(2-hydroxypropan-2-yl)pyrrolidin-3-yl)oxy)-2-fluorobenzonitrile]
Second: N#Cc1ccc(O[C@H]2CN(S(=O)(=O)c3ccc(Cl)cc3C#N)C[C@]2(O)CNCCO)cc1F [Example 236, 4-(((3S,4R)-1-((4-chloro-2-cyanophenyl)sulfonyl)-4-hydroxy-4-(((2-hydroxyethyl)amino)methyl)pyrrolidin-3-yl)oxy)-2-fluorobenzonitrile, 2,2,2-trifluoroacetate]
The IC50 of the first is higher: 10 to 100 nM for the first, 0.1 to 10 nM for the second.

First: N#Cc1ccc(S(=O)(=O)N2C[C@H](Oc3cc(F)c(C#N)cc3F)[C@](O)(CO)C2)cn1 [Example 82, 5-(((3R,4S)-4-(4-cyano-2,5-difluorophenoxy)-3-hydroxy-3-(hydroxymethyl)pyrrolidin-1-yl)sulfonyl)picolinonitrile]
Second: N#Cc1ccc(O[C@H]2CN(S(=O)(=O)c3ccc(OC(F)(F)F)cc3C#N)C[C@@]2(O)CO)cc1F [compound 232, 4-(((3S,4R)-1-((2-cyano-4-(trifluoromethoxy)phenyl)sulfonyl)-4-hydroxy-4-(hydroxymethyl)pyrrolidin-3-yl)oxy)-2-fluorobenzonitrile]
The IC50 of the first is higher: 10 to 100 nM for the first, 0.1 to 10 nM for the second. The second is the more potent here.

`Cc1cc(C#N)ccc1O[C@H]1CN(S(=O)(=O)c2ccc(C(F)(F)F)cc2C#N)C[C@@]1(O)CO` [Example 16, 2-(((3R,4S)-4-(4-cyano-2-methylphenoxy)-3-hydroxy-3-(hydroxymethyl)pyrrolidin-1-yl)sulfonyl)-5-(trifluoromethyl)benzonitrile] and `N#Cc1ccc(O[C@H]2CN(S(=O)(=O)c3ccc(C(F)(F)F)cc3C#N)C[C@@]2(O)CO)cc1` [Example 29, 2-(((3R,4S)-4-(4-cyanophenoxy)-3-hydroxy-3-(hydroxymethyl)pyrrolidin-1-yl)sulfonyl)-5-(trifluoromethyl)benzonitrile] fall in the same range of IC50: 0.1 to 10 nM for the first, 0.1 to 10 nM for the second.
